The source of these data is PubChem BioAssay AID1996.

The kinetic solubility is solubility judged after dilution from a stock solution rather than from solid.

≈ marks a conversion by molar mass, not a printed value.

The conditions of this data set: buffer; pH 7.4; 200.0 µM.
`O=C(CN1C(=O)c2ccccc2S1(=O)=O)Nc1ccc([N+](=O)[O-])cc1` yielded a kinetic solubility of 6 µg/mL (≈ 16.6 µM). The figure for `CC(=O)c1ccc(N2C(=O)CC(N3CCN(S(=O)(=O)c4cc(C)ccc4C)CC3)C2=O)cc1` (stereo not given) is 56.9 µg/mL (≈ 121 µM); for `Cc1cc(C)c2c(=O)c(C#N)coc2c1` it is 26.4 µg/mL (≈ 133 µM).

The compound `NC(=O)C1CCN(C(=O)c2cc(Cl)c3c(c2)OCCO3)CC1` returned a solubility (kinetic) above 48.7 µg/mL. The figure for `COC(=O)C(C(=O)OC)c1ncccc1[N+](=O)[O-]` is above 38.1 µg/mL; for `COc1ccc(C(=O)Nc2ccccc2C(=O)Nc2cccnc2)cc1` it is 8.8 µg/mL (≈ 25.3 µM). Take `COc1ccccc1C(=O)OCc1ccc2sc(C)nc2c1`: the kinetic solubility was found to be 3.1 µg/mL (≈ 9.89 µM).

Turning to `O=c1oc(Nc2ccccc2Cl)nc2ccccc12`, the solubility (kinetic) amounted to 7.9 µg/mL (≈ 29 µM).

In turn, `C/C(=N\O)C(C)(C)Nc1cccc(Br)c1` showed a kinetic solubility of 37 µg/mL (≈ 136 µM). The figure for `CC(SCc1ccccc1)C(=O)Nc1ccccc1` (stereo not given) is 32.1 µg/mL (≈ 118 µM); for `CC(C)(C)c1ccc(-c2noc(CCC(=O)N3CCOCC3)n2)cc1` it is 44.2 µg/mL (≈ 129 µM). For `Oc1c(Cl)cc(Cl)cc1CNc1ccccn1` the value was 3.1 µg/mL (≈ 11.5 µM); for `O=C(Cn1cnc([N+](=O)[O-])c1)NCCc1ccccc1`, above 41.1 µg/mL. `CC(=O)c1ccc(N2CCN(C(=O)CCc3ccccc3)CC2)cc1` came in with a solubility (kinetic) above 50.5 µg/mL. For `Cc1nnc(SCC(=O)NCC(=O)Nc2ccc(F)c(F)c2F)n1N` the value was above 56.2 µg/mL. `c1ccc2c(c1)nc(N1CCOCC1)c1ccccc12` showed a kinetic solubility of 14.9 µg/mL (≈ 56.4 µM). For `CC1CCC2(CC1)NC(=O)N(CC(=O)Nc1cc(S(=O)(=O)N3CCCC3)ccc1Cl)C2=O` (stereo not given) the value was 1.4 µg/mL (≈ 2.9 µM); for `CC(Nc1ccccc1)c1cccnc1` (stereo not given), above 29.7 µg/mL. The figure for `O=C(O)CSC1CC(=O)N(c2ccc(Br)cc2)C1=O` (stereo not given) is above 51.6 µg/mL; for `O=C(COC(=O)c1ccc([N+](=O)[O-])o1)Nc1ccc(F)cc1` it is above 46.2 µg/mL; for `Cc1ccc(CC2CC(=O)N(c3cc(C)ccc3C)C2=O)cc1` (stereo not given) it is 33.9 µg/mL (≈ 110 µM). For `COC(=O)c1sc(NC(=O)c2c(C)noc2C)nc1C` the value was above 44.3 µg/mL; for `Cc1ccc(NC(=S)N2CCC(NC(=O)c3ccco3)CC2)cc1C`, 39.2 µg/mL (≈ 110 µM). In the case of `Cc1ccc(CC(=O)NCCc2ccc(S(N)(=O)=O)cc2)cc1`, the kinetic solubility was above 49.9 µg/mL.

In turn, `CCOC(=O)c1c(C)[nH]c(C)c1C(=O)COC(=O)C1CC(=O)N(CCc2ccccc2)C1` (stereo not given) registered a solubility (kinetic) above 66.1 µg/mL. For `COc1cc(OC)cc(C(=O)NC2CCCCCCC2)c1` the value was 8.6 µg/mL (≈ 29.5 µM); for `CC(=O)SC1CC(=O)N(c2ccc(C(C)(C)C)cc2)C1=O` (stereo not given), 5.7 µg/mL (≈ 18.7 µM).

Turning to `CC1CCN(C(=O)COC(=O)c2ccc3ccccc3n2)CC1`, the kinetic solubility was above 46.9 µg/mL. For `NS(=O)(=O)c1ccc(NC(=O)Nc2cccc3ccccc23)cc1` the value was 2.1 µg/mL (≈ 6.15 µM); for `COC(=O)c1cccc(NC(=O)CC2NCCNC2=O)c1` (stereo not given), 39.6 µg/mL (≈ 136 µM). For `CCOC(=O)c1cc(/C(C)=N/OC(=O)c2ccc(Cl)cc2)on1` the value was 0.6 µg/mL (≈ 1.78 µM). Consider `O=C(O)c1ccc(-c2cccc([N+](=O)[O-])c2)o1`, for which the kinetic solubility is above 35 µg/mL. For `CCOC(=O)Nc1ccc2c(c1)N(C(=O)CCN1CCOCC1)c1ccccc1S2` the value was above 64.1 µg/mL; for `CN(C)c1ccc(C(=O)OCc2cc(=O)n3ccsc3n2)cc1`, 3.8 µg/mL (≈ 11.5 µM). The compound `O=C(COC(=O)/C=C/c1cccc(F)c1)NC(=O)NCc1ccccc1` registered a solubility (kinetic) of 2.8 µg/mL (≈ 7.86 µM). The figure for `Clc1ccccc1OCCCn1ccnc1` is 26.4 µg/mL (≈ 112 µM). For `Cc1cc(=O)[nH]c(SCC(=O)NC(C)C2CC3CCC2C3)c1C#N` (stereo not given) the value was above 51.8 µg/mL. The figure for `Cc1ccccc1Nc1ncnc(N)n1` is above 30.2 µg/mL; for `CCc1ccc(OCCCCCn2ccnc2)cc1` it is 19.5 µg/mL (≈ 75.5 µM); for `Cn1c(O)c(/C=N/NC(=O)c2ccncc2)c(=O)n(C)c1=S` it is above 47.9 µg/mL. `Cc1ccc(OCCCCCN2CCOCC2)c(Cl)c1` gave a kinetic solubility of 26.3 µg/mL (≈ 88.3 µM).

Compound `CC(=O)c1ccc(NC(=S)NC(=O)/C=C/c2ccco2)cc1` yielded a solubility (kinetic) of 1.4 µg/mL (≈ 4.45 µM). The figure for `O=C(c1cccs1)N1CCN(c2ccc([N+](=O)[O-])cc2F)CC1` is 4.7 µg/mL (≈ 14 µM). The figure for `C=CCNC(=O)c1cc2cccc(OC)c2oc1=O` is above 38.9 µg/mL; for `CCOCCCNC(=O)c1c[nH]c2cc(OC)ccc2c1=O` it is above 45.7 µg/mL. For `COc1ccccc1CNC(=O)c1cc(C(C)=O)c[nH]1` the value was 25.1 µg/mL (≈ 92.2 µM); for `O=C(NC(=S)N1CCCCC1)c1csc([N+](=O)[O-])c1`, above 44.9 µg/mL; for `CC(C)CNCC1OCc2ccccc2CO1.Cl`, above 40.8 µg/mL.

On to `Oc1c(Cl)cc(Cl)c2c1NCCC2`, for which the solubility (kinetic) worked out at 7 µg/mL (≈ 32.1 µM).

Turning to `COc1ccc(CCNC(=O)c2coc3ccccc3c2=O)cc1`, the solubility (kinetic) turned out to be 1.7 µg/mL (≈ 5.26 µM).

In the case of `CN1CC(=O)Nc2ccccc2C1=O`, the kinetic solubility was above 28.5 µg/mL. For `O=S(=O)(Nc1ccccn1)c1cccs1` the value was above 36 µg/mL; for `C=CCC1c2cccc(C(=O)O)c2C(=O)N1c1cccc(OC)c1` (stereo not given), above 48.5 µg/mL; for `COc1ccc(C(=O)N2CCC(c3ccccc3)CC2)c(OC)c1OC`, 47.6 µg/mL (≈ 134 µM).

Regarding `Cc1ccc(C)c(S(=O)(=O)c2c(C)cc(C)[nH]c2=O)c1`, the solubility (kinetic) was determined as 28.9 µg/mL (≈ 99.2 µM). Compound `O=S(=O)(c1ccccc1)N1CCN(C(=S)NCCc2ccccc2)CC1` came in with a solubility (kinetic) of 0.5 µg/mL (≈ 1.28 µM). The figure for `COc1ccccc1OCC(=O)Nc1ccc2c(c1)OCO2` is 40.9 µg/mL (≈ 136 µM). Turning to `COc1cccc(OC)c1C(=O)OCC(=O)N(C)c1ccccc1`, the solubility (kinetic) amounted to 43 µg/mL (≈ 131 µM). The figure for `Cc1ccc(NC(=S)NCc2ccco2)c(C)c1` is above 39.1 µg/mL. Turning to `CC(C)c1c(O)nc(SCCOc2ccc(Cl)cc2)[nH]c1=O`, the solubility (kinetic) turned out to be 44.7 µg/mL (≈ 131 µM). For `Cc1ccc(NC(=O)C2CCCN(c3ncccn3)C2)cc1C` (stereo not given) the value was 2.1 µg/mL (≈ 6.77 µM); for `CCCNC(=S)N1CCC(n2cnc3ccccc32)CC1`, above 45.4 µg/mL. The figure for `CN(CC(=O)Nc1ccccc1C(F)(F)F)C(=O)CSc1nnc(-c2ccncc2)n1C` is above 69.7 µg/mL. On to `CC1(C)CC(C(=O)Nc2ccccc2)C(=O)O1` (stereo not given), for which the kinetic solubility was above 35 µg/mL. The figure for `O=C(CC(=O)Nc1cccc(F)c1)Nc1cccc(F)c1` is 9.4 µg/mL (≈ 32.4 µM).

`CC1(C)OC(=O)C(=CNc2ccccn2)C(=O)O1` had a solubility (kinetic) of 28.5 µg/mL (≈ 115 µM).

Compound `O=C(O)c1cccnc1Sc1ccc(Br)cc1` displayed a kinetic solubility above 46.5 µg/mL. For `O=S(=O)(c1ccccc1)N1CCc2ccccc21` the value was 2 µg/mL (≈ 7.71 µM); for `CC1CCCCN1S(=O)(=O)c1ccc(C(=O)N2CCOCC2)cc1` (stereo not given), above 52.9 µg/mL. For `COc1ccc(CNC(=O)c2[nH]c(C)c(C(C)=O)c2C)cc1` the value was above 45.1 µg/mL; for `O=C(Nc1cccnc1)OC1CCCCC1`, above 33 µg/mL.

Take `COc1ccccc1NCC(=O)c1ccc(Cl)cc1`: the kinetic solubility came to 4.7 µg/mL (≈ 17 µM).

Consider `Cc1ccccc1/C=C/c1cccc[n+]1C.[I-]`, for which the solubility (kinetic) is above 50.6 µg/mL. As for `Cc1oc(CC(C)C)cc1C(=O)NCCCC(=O)O`, the solubility (kinetic) was above 40.1 µg/mL. On to `O=C(COC(=O)CCc1c[nH]c2ccccc12)NCc1ccc2c(c1)OCO2`, for which the solubility (kinetic) was 43 µg/mL (≈ 113 µM).
